What was measured:
[1] = test system: MV4-11 cells; experiment: Inhibition of MV4-11 cell proliferation (CellTiterGlo, 72 h); assay type: cell-based; conditions: Homo sapiens; 72 h growth inhibition
Protocol: To assess the cellular potency of the FLT3 inhibitors of Formula I′, FLT3 specific growth inhibition was measured in the leukemic cell line MV4-11 (ATCC Number: CRL-9591). […] MV4-11 cells cannot grow and survive without active FLT3ITD.
To measure proliferation inhibition by test compounds, the luciferase based CellTiterGlo reagent (Promega), which quantifies total cell number based on total cellular ATP concentration, was used. Cells are plated at 10,000 cells per well in 100 ul of in RPMI media containing penn/strep, 10% FBS and 1 ng/ml GM-CSF or 1 ng/ml IL-3 for MV4-11 and Baf3 cells respectively.
Compound dilutions or 0.1% DMSO (vehicle control) are added to cells and the cells are allowed to grow for 72 hours at standard cell growth conditions (37° C., 5% CO2). For activity measurements in MV4-11 cells grown in 50% plasma, cells were plated at 10,000 cells per well in a 1:1 mixture of growth media and human plasma (final volume of 100 μL). To measure total cell growth an equal volume of CellTiterGlo reagent was added to each well, according to the manufacturer's instructions, and luminescence was quantified. Total cell growth was quantified as the difference in luminescent counts (relative light units, RLU) of cell number at Day 0 compared to total cell number at Day 3 (72 hours of growth and/or compound treatment). One hundred percent inhibition of growth is defined as an RLU equivalent to the Day 0 reading. Zero percent inhibition was defined as the RLU signal for the DMSO vehicle control at Day 3 of growth. All data points are an average of triplicate samples. […] Inhibition and IC50 data analysis was done with GraphPad Prism using a non-linear regression fit with a multiparamater, sigmoidal dose-response (variable slope) equation.
MV4-11 cells express the FLT3 internal tandem duplication mutation, and thus are entirely dependent upon FLT3 activity for growth. […] In contrast, the Baf3 cell proliferation is driven by the cytokine IL-3 and thus are used as a non-specific toxicity control for test compounds.

[2] = target: T1, isolated kinase domain of the human FLT3 receptor (a.a. 571-993) (Homo sapiens, UniProt P36888); experiment: FLT3 fluorescence polarization kinase assay; assay type: biochemical
T1 construct: human FLT3 receptor (a.a. 571-993)
T1 sequence (P36888 571-993): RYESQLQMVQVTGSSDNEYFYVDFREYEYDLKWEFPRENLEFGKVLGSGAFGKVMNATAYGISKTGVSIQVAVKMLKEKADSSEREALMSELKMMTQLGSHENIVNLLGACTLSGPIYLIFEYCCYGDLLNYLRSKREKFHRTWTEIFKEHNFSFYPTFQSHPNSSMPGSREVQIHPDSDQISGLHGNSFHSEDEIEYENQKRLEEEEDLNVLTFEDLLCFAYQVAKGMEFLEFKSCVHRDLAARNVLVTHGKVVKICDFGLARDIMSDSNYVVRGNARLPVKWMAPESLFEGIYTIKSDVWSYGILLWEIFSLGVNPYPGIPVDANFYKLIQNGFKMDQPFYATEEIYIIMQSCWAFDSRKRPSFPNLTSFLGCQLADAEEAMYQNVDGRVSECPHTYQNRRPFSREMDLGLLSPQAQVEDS
Excerpt: The FLT3 FP assay utilizes the fluorescein-labeled phosphopeptide and the anti-phosphotyrosine antibody included in the Panvera Phospho-Tyrosine Kinase Kit (Green) supplied by Invitrogen. When FLT3 phosphorylates polyGlu4Tyr, the fluorescein-labeled phosphopeptide is displaced from the anti-phosphotyrosine antibody by the phosphorylated poly Glu4Tyr, thus decreasing the FP value. […] The kinase reaction is stopped with the addition of EDTA. The fluorescein-labeled phosphopeptide and the anti-phosphotyrosine antibody are added and incubated for 30 minutes at room temperature.
All data points are an average of triplicate samples. Inhibition and IC50 data analysis was done with GraphPad Prism using a non-linear regression fit with a multiparamater, sigmoidal dose-response (variable slope) equation.

[3] = target: T2, wild-type FLT3 phosphorylation in Baf3 FLT3 cells (Homo sapiens, UniProt P36888); experiment: Cell-based FLT3 receptor ELISA; conditions: FLT ligand-induced FLT3 phosphorylation
T2 construct: host or cells: Baf3 (murine B cell lymphoma line)
T2 sequence (P36888 27-993): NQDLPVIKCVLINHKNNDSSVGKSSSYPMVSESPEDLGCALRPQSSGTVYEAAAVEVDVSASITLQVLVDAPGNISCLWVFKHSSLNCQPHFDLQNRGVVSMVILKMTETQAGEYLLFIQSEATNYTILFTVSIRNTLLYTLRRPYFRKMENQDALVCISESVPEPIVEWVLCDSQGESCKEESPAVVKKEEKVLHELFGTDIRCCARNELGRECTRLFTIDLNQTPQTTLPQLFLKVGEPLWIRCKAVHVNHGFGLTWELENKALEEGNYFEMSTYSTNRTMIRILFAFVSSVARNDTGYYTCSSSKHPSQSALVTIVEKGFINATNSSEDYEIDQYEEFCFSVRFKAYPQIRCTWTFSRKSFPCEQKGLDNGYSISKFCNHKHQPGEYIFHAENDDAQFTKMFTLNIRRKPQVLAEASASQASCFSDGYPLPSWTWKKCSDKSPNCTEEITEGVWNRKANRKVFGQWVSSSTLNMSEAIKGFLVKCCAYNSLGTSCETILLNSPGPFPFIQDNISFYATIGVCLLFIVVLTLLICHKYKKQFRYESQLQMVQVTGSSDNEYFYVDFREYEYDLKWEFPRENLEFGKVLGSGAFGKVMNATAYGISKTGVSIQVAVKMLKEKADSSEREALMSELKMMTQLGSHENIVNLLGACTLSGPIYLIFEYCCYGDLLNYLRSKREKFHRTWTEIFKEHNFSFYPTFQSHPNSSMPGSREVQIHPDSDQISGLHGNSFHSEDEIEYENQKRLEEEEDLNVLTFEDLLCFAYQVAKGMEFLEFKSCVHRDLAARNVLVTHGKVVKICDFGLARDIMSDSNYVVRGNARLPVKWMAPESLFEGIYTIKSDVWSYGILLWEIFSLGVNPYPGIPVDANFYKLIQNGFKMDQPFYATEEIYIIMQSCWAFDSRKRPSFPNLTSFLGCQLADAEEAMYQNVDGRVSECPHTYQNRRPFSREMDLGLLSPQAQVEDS
Protocol: Specific cellular inhibition of FLT ligand-induced wild-type FLT3 phosphorylation was measured in the following manner: Baf3 FLT3 cells overexpressing the FLT3 receptor were obtained from Dr. Michael Heinrich (Oregon Health and Sciences University). The Baf3 FLT3 cell lines were created by stable transfection of parental Baf3 cells (a murine B cell lymphoma line dependent on the cytokine IL-3 for growth) with wild-type FLT3. Cells were selected for their ability to grow in the absence of IL-3 and in the presence of FLT3 ligand.
Baf3 cells were maintained in RPMI 1640 with 10% FBS, penn/strep and 10 ng/ml FLT ligand at 37° C., 5% CO2. To measure direct inhibition of the wild-type FLT3 receptor activity and phosphorylation a sandwich ELISA method was developed similar to those developed for other RTKs (see Sadick, M D, Sliwkowski, M X, Nuijens, A, Bald, L, Chiang, N, Lofgren, J A, Wong W L T. Analysis of Heregulin-Induced ErbB2 Phosphorylation with a High-Throughput Kinase Receptor Activation Enzyme-Linked Immunsorbent Assay, Analytical Biochemistry. 1996; 235:207-214 and Baumann C A, Zeng L, Donatelli R R, Maroney A C. Development of a quantitative, high-throughput cell-based enzyme-linked immunosorbent assay for detection of colony-stimulating factor-1 receptor tyrosine kinase inhibitors. J Biochem Biophys Methods. 2004; 60:69-79.). 200 μL of Baf3FLT3 cells (1×10^6/mL) were plated in 96 well dishes in RPMI 1640 with 0.5% serum and 0.01 ng/mL IL-3 for 16 hours prior to 1 hour compound or DMSO vehicle incubation. Cells were treated with 100 ng/mL Flt ligand (R&D Systems Cat# 308-FK) for 10 min. at 37° C. Cells were pelleted, washed and lysed in 100 ul lysis buffer (50 mM Hepes, 150 mM NaCl, 10% Glycerol, 1% Triton-X-100, 10 mM NaF, 1 mM EDTA, 1.5 mM MgCl2, 10 mM NaPyrophosphate) supplemented with phosphatase (Sigma Cat# P2850) and protease inhibitors (Sigma Cat #P8340). Lysates were cleared by centrifugation at 1000×g for 5 minutes at 4° C. Cell lysates were transferred to white wall 96 well microtiter (Costar #9018) plates coated with 50 ng/well anti-FLT3 antibody (Santa Cruz Cat# sc-480) and blocked with SeaBlock reagent (Pierce Cat#37527). Lysates were incubated at 4° C. for 2 hours. Plates were washed 3× with 200 ul/well PBS/0.1% Triton-X-100. Plates were then incubated with 1:8000 dilution of HRP-conjugated anti-phosphotyrosine antibody (Clone 4G10, Upstate Biotechnology Cat#16-105) for 1 hour at room temperature. Plates were washed 3× with 200 ul/well PBS/0.1% Triton-X-100. Signal detection with Super Signal Pico reagent (Pierce Cat#37070) was done according to manufacturer's instruction with a Berthold microplate luminometer. All data points are an average of triplicate samples. […] Inhibition and IC50 data analysis was done with GraphPad Prism using a non-linear regression fit with a multiparamater, sigmoidal dose-response (variable slope) equation.

Row | SMILES | IC50 [1] [nM] | IC50 [2] [nM] | IC50 [3] [nM]
1 | CC(C)Oc1ccc(NC(=O)NC2CCN(c3ccnc4ccccc34)C2)cc1 (stereo not shown) [Compound 38, (4-Isopropoxy-phenyl)-3-(1-quinolin-4-yl)-pyrrolidin-3-yl-urea] | > 3000 | 3150 | –
2 | COc1cc2ncnc(N3CCC(OC(=O)Nc4ccc(OC5CCC5)nc4)CC3)c2cc1OC [Compound 11, (6-Cyclobutoxy-pyridin-3-yl)-carbamic acid 1-(6,7-dimethoxy-quinazolin-4-yl)-piperidin-4-yl ester] | 71 | 28 | –
3 | COc1cc2ncnc(N3CCC(C(=O)Nc4cccc(OC(C)C)c4)CC3)c2cc1OC [Compound 30, 1(-6,7-Dimethoxy-quinazolin-4-yl)-piperidine-4-carboxylic acid (3-isopropoxy-phenyl)-amide] | 2310 | 563 | –
4 | COc1cc2ncnc(N3CC(CNC(=O)Nc4ccc(OC(C)C)cc4)C3)c2cc1OC [Compound 25, 1-[1-(6,7-Dimethoxy-quinazolin-4-yl)-azetidin-3-ylmethyl]-3-(4-isopropoxy-phenyl)-urea] | > 10000 | 408 | –
5 | COc1cc2ncc(C#N)c(N3CCC(OC(=O)Nc4ccc(OC(C)C)cc4)CC3)c2cc1OC [Compound 40, (4-Isopropoxy-phenyl)-carbamic acid 1-(3-cyano-6,7-dimethoxy-quinolin-4-yl)-piperidin-4-yl ester] | – | > 10000 | –
6 | CC(C)c1ccc(NC(=O)NC2CCN(c3ncnc4cc(F)ccc34)CC2)cc1 [Compound 72, 1-[1-(7-Fluoro-quinazolin-4-yl)-piperidin-4-yl]-3-(4-isopropyl-phenyl)-urea] | 245 | – | 30
7 | COc1ccc2c(N3CCC(NC(=O)Nc4ccc(C(C)C)cc4)CC3)ncnc2c1 [Compound 65, 1-(4-Isopropyl-phenyl)-3-[1-(7-methoxy-quinazolin-4-yl)-piperidin-4-yl]-urea] | 321 | – | 178
8 | COc1cc2ncnc(N3CCC(NC(=O)Nc4ccc(C(C)C)cc4)CC3)c2cc1OC [Compound 66, 1-[1-(6,7-Dimethoxy-quinazolin-4-yl)-piperidin-4-yl]-3-(4-isopropyl-phenyl)-urea] | 1 | – | 1

Next, values leading:

Row | IC50 [1] [nM] | IC50 [2] [nM] | IC50 [3] [nM] | SMILES
9 | 1100 | 26 | – | CC(C)c1ccc(NC(=O)OC2CCN(c3ccnc4ccccc34)CC2)cc1 [Compound 10]
10 | 6400 | 1050 | – | CC(C)c1ccc(NC(=O)OC2CCN(c3ccnc4ccccc34)C2)cc1 (stereo not shown) [Compound 34]
11 | > 10000 | 7140 | – | CC(C)Oc1ccc(NC(=O)OC2CCN(c3ccnc4ccccc34)C2)cc1 (stereo not shown) [Compound 39]
12 | 220 | 290 | – | CC(C)c1ccc(NC(=O)OC2CCN(c3ncnc4ccccc34)C2)cc1 (stereo not shown) [Compound 24, (4-Isopropyl-phenyl)-carbamic acid 1-quinazolin-4-yl-pyrrolidin-3-yl ester]
13 | 5300 | 457 | – | CC(C)c1ccc(NC(=O)NC2CCN(c3ccnc4ccccc34)C2)cc1 (stereo not shown) [Compound 27, (4-Isopropyl-phenyl)-3-(1-quinolin-4-yl)-pyrrolidin-3-yl-urea]

— patent publication US20060281771A1, “SYNERGISTIC MODULATION OF FLT3 KINASE USING AMINOQUINOLINE AND AMINOQUINAZOLINE KINASE MODULATORS” (priority 2005, published 2006)
